The values below come from patent US10986838B2, “Herbicides” (SYNGENTA PARTICIPATIONS AG, priority 2016, dated 2021).

Molecules are shown by their SMILES.

One assay has as its system Abutilon theophrasti (ABUTH). Kind of assay: Pre-emergence herbicidal activity (B1). The format is in vivo. To be noted: Test 1b, 1000 g/ha, evaluated after 13 days, 5=total damage to plant, 0=no damage to plant. As to the method:
(§1) B1 Pre-Emergence Herbicidal Activity Seeds of a variety of test species were sown in standard soil in pots: Triticum aestivium (TRZAW), Avena fatua (AVEFA), Alopecurus myosuroides (ALOMY), Echinochloa crus-galli (ECHCG), Lolium perenne (LOLPE), Zea Mays (ZEAMX), Abutilon theophrasti (ABUTH), Amaranthus retroflexus (AMARE) and Setaria faberi (SETFA). After cultivation for one day (pre-emergence) under controlled conditions in a glasshouse (at 24/16° C., day/night; 14 hours light; 65% humidity), the plants were sprayed with an aqueous spray solution derived from the formulation of the technical active ingredient in acetone/water (50:50) solution containing 0.5% Tween 20 (polyoxyethelyene sorbitan monolaurate, CAS RN 9005-64-5). The test plants were then grown in a glasshouse under controlled conditions (at 24/16° C., day/night; 14 hours light; 65% humidity) and watered twice daily. After 13 days, the test was evaluated (5=total damage to plant; 0=no damage to plant). Tables B1a and B1b Control of Weed Species by Compound of Formula (I) after Pre-Emergence Application
Regarding `Cc1nc(-c2cncnc2)ccc1N` [Compound A14], the ABUTH damage score was 0.
As for `CC#CCNc1ccc(-c2cncc(F)c2)nc1C(F)(F)F` [Compound A30], the ABUTH damage score was determined as 0.
Still for that read-out and setting: in the case of `CNc1ccc(-c2cncnc2)nc1C(F)(F)F` [Compound A34] it was 0; in that of `COC(=O)C(C)Nc1ccc(-c2cncc(F)c2)nc1C(F)(F)F` (stereo not drawn) [Compound A19], 0.
`Fc1cncc(-c2ccc(NCC3CC3)c(C(F)(F)F)n2)c1` [Compound A29] came in with an ABUTH damage score of 1.

For another assay, the system named is Amaranthus retroflexus (AMARE). Nature of the assay: Pre-emergence herbicidal activity (B1). To be noted: Test 1b, 1000 g/ha, evaluated after 13 days, 5=total damage to plant, 0=no damage to plant. Type of assay: in vivo. How it is done: as §1
On to `Cc1nc(-c2cncnc2)ccc1N` [Compound A14], for which the AMARE damage score worked out at 0.
On the same count and under the same terms, the result for `CC#CCNc1ccc(-c2cncc(F)c2)nc1C(F)(F)F` [Compound A30] reads 2; that for `CNc1ccc(-c2cncnc2)nc1C(F)(F)F` [Compound A34], 1.
With `COC(=O)C(C)Nc1ccc(-c2cncc(F)c2)nc1C(F)(F)F` (stereo not drawn) [Compound A19], the AMARE damage score amounted to 1.
Same read-out and setting: the result for `Fc1cncc(-c2ccc(NCC3CC3)c(C(F)(F)F)n2)c1` [Compound A29] reads 3.

The test system of a further assay is Echinochloa crus-galli (ECHCG). Nature of the assay: Pre-emergence herbicidal activity (B1). The format is in vivo. To be noted: Test 1b, 1000 g/ha, evaluated after 13 days, 5=total damage to plant, 0=no damage to plant. How it is done: as §1
In turn, `Cc1nc(-c2cncnc2)ccc1N` [Compound A14] returned an ECHCG damage score of 1.
With `CC#CCNc1ccc(-c2cncc(F)c2)nc1C(F)(F)F` [Compound A30], the ECHCG damage score is 4.
The same measure, in the same setting: the result for `CNc1ccc(-c2cncnc2)nc1C(F)(F)F` [Compound A34] reads 4.
Regarding `COC(=O)C(C)Nc1ccc(-c2cncc(F)c2)nc1C(F)(F)F` (stereo not drawn) [Compound A19], the ECHCG damage score amounted to 3.
Same read-out and setting: the result for `Fc1cncc(-c2ccc(NCC3CC3)c(C(F)(F)F)n2)c1` [Compound A29] reads 4.

The next assay concerns Lolium perenne (LOLPE). Nature of the assay: Pre-emergence herbicidal activity (B1). Type of assay: in vivo. To be noted: Test 1b, 1000 g/ha, evaluated after 13 days, 5=total damage to plant, 0=no damage to plant. As to the method: as §1
As for `Cc1nc(-c2cncnc2)ccc1N` [Compound A14], the LOLPE damage score was found to be 1.
Still for that read-out and setting: the result for `CC#CCNc1ccc(-c2cncc(F)c2)nc1C(F)(F)F` [Compound A30] reads 2.
Take `CNc1ccc(-c2cncnc2)nc1C(F)(F)F` [Compound A34]: the LOLPE damage score is 3.
Still for that read-out and setting: the result for `COC(=O)C(C)Nc1ccc(-c2cncc(F)c2)nc1C(F)(F)F` (stereo not drawn) [Compound A19] reads 2; that for `Fc1cncc(-c2ccc(NCC3CC3)c(C(F)(F)F)n2)c1` [Compound A29], 3.

Another assay has as its system Setaria faberi (SETFA). Kind of assay: Pre-emergence herbicidal activity (B1). Type of assay: in vivo. The note with it: Test 1b, 1000 g/ha, evaluated after 13 days, 5=total damage to plant, 0=no damage to plant. How it is done:
as §1
In turn, `Cc1nc(-c2cncnc2)ccc1N` [Compound A14] registered an SETFA damage score of 2.
The same measure, in the same setting: the result for `CC#CCNc1ccc(-c2cncc(F)c2)nc1C(F)(F)F` [Compound A30] reads 5; that for `CNc1ccc(-c2cncnc2)nc1C(F)(F)F` [Compound A34], 4; that for `COC(=O)C(C)Nc1ccc(-c2cncc(F)c2)nc1C(F)(F)F` (stereo not drawn) [Compound A19], 4.
Still for that read-out and setting: in the case of `Fc1cncc(-c2ccc(NCC3CC3)c(C(F)(F)F)n2)c1` [Compound A29] it was 5.

The next assay relates to Zea Mays (ZEAMX). Nature of the assay: Pre-emergence herbicidal activity (B1). Type of assay: in vivo. The note with it: Test 1b, 1000 g/ha, evaluated after 13 days, 5=total damage to plant, 0=no damage to plant. As to the method:
as §1
`Cc1nc(-c2cncnc2)ccc1N` [Compound A14] displayed a ZEAMX damage score of 1.
Still for that read-out and setting: in the case of `CC#CCNc1ccc(-c2cncc(F)c2)nc1C(F)(F)F` [Compound A30] it was 5.
Take `CNc1ccc(-c2cncnc2)nc1C(F)(F)F` [Compound A34]: the ZEAMX damage score is on record as 4.
On the same count and under the same terms, in the case of `COC(=O)C(C)Nc1ccc(-c2cncc(F)c2)nc1C(F)(F)F` (stereo not drawn) [Compound A19] it was 5.
Still for that read-out and setting: in the case of `Fc1cncc(-c2ccc(NCC3CC3)c(C(F)(F)F)n2)c1` [Compound A29] it was 5.

The next assay concerns Abutilon theophrasti (ABUTH). Kind of assay: Post-emergence herbicidal activity (B2). The format is in vivo. The note with it: Test B2b, 1000 g/ha, evaluated after 13 days, 5=total damage to plant, 0=no damage to plant. As to the method:
(§2) B2 Post-Emergence Herbicidal Activity Seeds of a variety of test species were sown in standard soil in pots: Triticum aestivium (TRZAW), Avena fatua (AVEFA), Alopecurus myosuroides (ALOMY), Echinochloa crus-galli (ECHCG), Lolium perenne (LOLPE), Zea Mays (ZEAMX), Abutilon theophrasti (ABUTH), Amaranthus retroflexus (AMARE) and Setaria faberi (SETFA). After 8 days cultivation (post-emergence) under controlled conditions in a glasshouse (at 24/16° C., day/night; 14 hours light; 65% humidity), the plants were sprayed with an aqueous spray solution derived from the formulation of the technical active ingredient in acetone/water (50:50) solution containing 0.5% Tween 20 (polyoxyethelyene sorbitan monolaurate, CAS RN 9005-64-5). The test plants were then grown in a glasshouse under controlled conditions (at 24/16° C., day/night; 14 hours light; 65% humidity) and watered twice daily. After 13 days, the test was evaluated (5=total damage to plant; 0=no damage to plant). Tables B2a and B2b Control of Weed Species by Compound of Formula (I) after Post-Emergence Application
`Cc1nc(-c2cncnc2)ccc1N` [Compound A14] gave an ABUTH damage score of 0.
Still for that read-out and setting: in the case of `CC#CCNc1ccc(-c2cncc(F)c2)nc1C(F)(F)F` [Compound A30] it was 2; in that of `CNc1ccc(-c2cncnc2)nc1C(F)(F)F` [Compound A34], 1; in that of `COC(=O)C(C)Nc1ccc(-c2cncc(F)c2)nc1C(F)(F)F` (stereo not drawn) [Compound A19], 1.
Still for that read-out and setting: the result for `Fc1cncc(-c2ccc(NCC3CC3)c(C(F)(F)F)n2)c1` [Compound A29] reads 2.

Another assay relates to Amaranthus retroflexus (AMARE). Kind of assay: Post-emergence herbicidal activity (B2). The note with it: Test B2b, 1000 g/ha, evaluated after 13 days, 5=total damage to plant, 0=no damage to plant. The format is in vivo. As to the method:
as §2
As for `Cc1nc(-c2cncnc2)ccc1N` [Compound A14], the AMARE damage score is reported as 2.
For `CC#CCNc1ccc(-c2cncc(F)c2)nc1C(F)(F)F` [Compound A30], the AMARE damage score is 2.
`CNc1ccc(-c2cncnc2)nc1C(F)(F)F` [Compound A34] registered an AMARE damage score of 2.
Still for that read-out and setting: in the case of `COC(=O)C(C)Nc1ccc(-c2cncc(F)c2)nc1C(F)(F)F` (stereo not drawn) [Compound A19] it was 2; in that of `Fc1cncc(-c2ccc(NCC3CC3)c(C(F)(F)F)n2)c1` [Compound A29], 2.

In another assay the test system is Echinochloa crus-galli (ECHCG). Kind of assay: Post-emergence herbicidal activity (B2). The format is in vivo. To be noted: Test B2b, 1000 g/ha, evaluated after 13 days, 5=total damage to plant, 0=no damage to plant. As to the method:
as §2
In the case of `Cc1nc(-c2cncnc2)ccc1N` [Compound A14], the ECHCG damage score was 2.
Same read-out and setting: in the case of `CC#CCNc1ccc(-c2cncc(F)c2)nc1C(F)(F)F` [Compound A30] it was 5.
The same measure, in the same setting: the result for `CNc1ccc(-c2cncnc2)nc1C(F)(F)F` [Compound A34] reads 5; that for `COC(=O)C(C)Nc1ccc(-c2cncc(F)c2)nc1C(F)(F)F` (stereo not drawn) [Compound A19], 4.
Regarding `Fc1cncc(-c2ccc(NCC3CC3)c(C(F)(F)F)n2)c1` [Compound A29], the ECHCG damage score was found to be 5.

The test system of another assay is Lolium perenne (LOLPE). Nature of the assay: Post-emergence herbicidal activity (B2). To be noted: Test B2b, 1000 g/ha, evaluated after 13 days, 5=total damage to plant, 0=no damage to plant. The format is in vivo. As to the method:
as §2
`Cc1nc(-c2cncnc2)ccc1N` [Compound A14]: the LOLPE damage score is 1.
For `CC#CCNc1ccc(-c2cncc(F)c2)nc1C(F)(F)F` [Compound A30], the LOLPE damage score is on record as 4.
On the same count and under the same terms, the result for `CNc1ccc(-c2cncnc2)nc1C(F)(F)F` [Compound A34] reads 3; that for `COC(=O)C(C)Nc1ccc(-c2cncc(F)c2)nc1C(F)(F)F` (stereo not drawn) [Compound A19], 3.
The same measure, in the same setting: in the case of `Fc1cncc(-c2ccc(NCC3CC3)c(C(F)(F)F)n2)c1` [Compound A29] it was 4.

In the next assay the test system is Setaria faberi (SETFA). Kind of assay: Post-emergence herbicidal activity (B2). Type of assay: in vivo. To be noted: Test B2b, 1000 g/ha, evaluated after 13 days, 5=total damage to plant, 0=no damage to plant. How it is done:
as §2
Consider `Cc1nc(-c2cncnc2)ccc1N` [Compound A14], for which the SETFA damage score is 3.
On the same count and under the same terms, in the case of `CC#CCNc1ccc(-c2cncc(F)c2)nc1C(F)(F)F` [Compound A30] it was 5; in that of `CNc1ccc(-c2cncnc2)nc1C(F)(F)F` [Compound A34], 5; in that of `COC(=O)C(C)Nc1ccc(-c2cncc(F)c2)nc1C(F)(F)F` (stereo not drawn) [Compound A19], 5.
Turning to `Fc1cncc(-c2ccc(NCC3CC3)c(C(F)(F)F)n2)c1` [Compound A29], the SETFA damage score is given as 5.

The subject of a further assay is Zea Mays (ZEAMX). Nature of the assay: Post-emergence herbicidal activity (B2). Type of assay: in vivo. The note with it: Test B2b, 1000 g/ha, evaluated after 13 days, 5=total damage to plant, 0=no damage to plant. How it is done: as §2
The compound `Cc1nc(-c2cncnc2)ccc1N` [Compound A14] came in with a ZEAMX damage score of 2.
With `CC#CCNc1ccc(-c2cncc(F)c2)nc1C(F)(F)F` [Compound A30], the ZEAMX damage score is given as 5.
The same measure, in the same setting: in the case of `CNc1ccc(-c2cncnc2)nc1C(F)(F)F` [Compound A34] it was 5.
In the case of `COC(=O)C(C)Nc1ccc(-c2cncc(F)c2)nc1C(F)(F)F` (stereo not drawn) [Compound A19], the ZEAMX damage score is listed as 5.
`Fc1cncc(-c2ccc(NCC3CC3)c(C(F)(F)F)n2)c1` [Compound A29]: the ZEAMX damage score came to 5.
